Assay results reported in US20260217708A1, “FUSED BENZAZEPINE DERIVATIVES FOR USE IN THE TREATMENT OF CANCER AND EPILEPSY” (UCB BIOPHARMA SRL, priority 2023, published 2026).

Experiments:
system Xc^− [1] = target: T1, system Xc^− (Homo sapiens, UniProt Q9UPY5); experiment: Cystine-induced glutamate release assay; format: cell-based; design: endogenous in cells; host or cells: H4 cells; conditions: H4 cells, sodium-free HEPES buffer, 50 μM L-Cystine, 2 hours, Amplex Red glutamate readout; read-out: pIC50 Cystine-induced glutamate release assay (converted)
T1 sequence (Q9UPY5 1-501): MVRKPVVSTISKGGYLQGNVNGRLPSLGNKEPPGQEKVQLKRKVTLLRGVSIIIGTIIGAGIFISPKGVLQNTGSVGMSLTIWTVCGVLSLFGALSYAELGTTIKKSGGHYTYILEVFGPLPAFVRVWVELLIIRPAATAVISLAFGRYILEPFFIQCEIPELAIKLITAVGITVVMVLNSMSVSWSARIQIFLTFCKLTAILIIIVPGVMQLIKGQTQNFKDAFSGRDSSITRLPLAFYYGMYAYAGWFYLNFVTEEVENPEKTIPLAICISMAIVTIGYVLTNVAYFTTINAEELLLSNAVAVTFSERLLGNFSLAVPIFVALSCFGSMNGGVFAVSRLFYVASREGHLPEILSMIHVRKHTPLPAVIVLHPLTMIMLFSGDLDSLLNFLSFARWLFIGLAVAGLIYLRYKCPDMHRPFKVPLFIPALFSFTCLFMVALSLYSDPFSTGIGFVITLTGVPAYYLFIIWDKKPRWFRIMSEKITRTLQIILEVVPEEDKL
T1 sequence (P08195 1-529 partner): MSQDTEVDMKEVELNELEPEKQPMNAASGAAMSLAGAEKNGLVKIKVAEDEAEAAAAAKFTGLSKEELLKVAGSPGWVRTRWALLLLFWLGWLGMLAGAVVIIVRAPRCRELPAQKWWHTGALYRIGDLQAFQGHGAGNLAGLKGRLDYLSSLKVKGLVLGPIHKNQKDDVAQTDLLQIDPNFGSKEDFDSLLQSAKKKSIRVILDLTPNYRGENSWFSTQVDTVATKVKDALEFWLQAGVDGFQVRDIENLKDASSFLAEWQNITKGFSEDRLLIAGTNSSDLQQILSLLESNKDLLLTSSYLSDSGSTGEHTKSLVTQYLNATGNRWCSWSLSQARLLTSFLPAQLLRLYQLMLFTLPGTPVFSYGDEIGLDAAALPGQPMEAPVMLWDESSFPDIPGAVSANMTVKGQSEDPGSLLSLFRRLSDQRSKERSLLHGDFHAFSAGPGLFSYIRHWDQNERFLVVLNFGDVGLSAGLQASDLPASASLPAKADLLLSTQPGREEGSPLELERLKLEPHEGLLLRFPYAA
Procedure, shortened: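 IC50 (reported as pIC50) normalized to DMSO 1% and Erastin 50 μM controls, from Amplex Red fluorescence of glutamate exported into supernatant. H4 cells were washed into sodium-free buffer to exclude EAAT transport, then given compound with 50 μM L-cystine for 2 h in the incubator.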

system Xc^− [2] = target: T1, system Xc^−; experiment: [^14C]L-Cystine uptake assay; format: cell-based; design: endogenous in cells; host or cells: H4 cells; conditions: H4 cells, sodium-free HEPES buffer, 0.5 μM L-[14C]Cystine and 4.5 μM L-Cystine, 1 hour at 37° C.; read-out: pIC50 [^14C] L-Cystine uptake assay (converted)
Procedure, shortened: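 Compound effect is given as pIC50, taken between controls of 1% DMSO and 50 μM Erastin. Human H4 cells were pretreated 15 min with compound in sodium-free buffer, then took up 0.5 μM [14C]cystine with 4.5 μM cold cystine for 1 hour at 37° C, read by scintillation proximity counting.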

| SMILES | IC50 (system Xc^− [1]) [nM] | IC50 (system Xc^− [2]) [nM] |
| --- | --- | --- |
| N#Cc1cc2c(cc1F)-c1cccnc1CC(=O)N2CC(=O)Nc1ccc(C(F)(F)F)cc1 [#69, 2-(9-cyano-10-fluoro-6-oxo-5H-pyrido[2,3-d][1]benzazepin-7-yl)-N-[4-(trifluoromethyl)-phenyl]acetamide] | 39.8 to 100 | 15.8 to 39.8 |
| Cc1cc2c(c(F)n1)-c1ccccc1C(O)C(=O)N2CC(=O)Nc1ccc(C(F)(F)F)cc1 (centres unmarked) [#95, 2-(1-fluoro-7-hydroxy-3-methyl-6-oxo-7H-pyrido[4,3-d][3]benzazepin-5-yl)-N-[4-(trifluoromethyl)phenyl]acetamide] | 15.8 to 39.8 | 39.8 to 100 |
| COc1cc2c(c(F)n1)-c1cccnc1C(C)C(=O)N2CC(=O)Nc1ccc(F)c(Cl)c1 (single isomer, unassigned) [#216, Enantiomer (10S) or (10R) of N-(3-chloro-4-fluoro-phenyl)-2-(3-fluoro-5-methoxy-10-methyl-9-oxo-4,8,12-triazatricyclo[9.4.0.0^2,7]pentadeca-1(11),2(7),3,5,12,14-hexaen-8-yl)acetamide] | 39.8 to 100 | 15.8 to 39.8 |
| Cc1cc2c(c(Cl)n1)-c1cccnc1C(F)C(=O)N2CC(=O)Nc1ccc(C(F)(F)F)cc1 (single isomer, unassigned) [#188, enantiomer (10R) or (10S) of 2-[3-chloro-10-fluoro-5-methyl-9-oxo-4,8,12-triazatricyclo[9.4.0.0^2,7]pentadeca-1(11),2(7),3,5,12,14-hexaen-8-yl]-N-[4-(trifluoromethyl)phenyl]acetamide] | < 15.8 | < 15.8 |
| COc1nc2c(cc1C)N(CC(=O)Nc1ccc(C(F)(F)F)cc1)C(=O)C(C)c1ncccc1-2 (centres unmarked) [#109, 2-(4-methoxy-5,10-dimethyl-9-oxo-3,8,12-triazatricyclo[9.4.0.0^2,7]pentadeca-1(11),2,4,6,12,14-hexaen-8-yl)-N-[4-(trifluoromethyl)phenyl]acetamide] | 39.8 to 100 | 15.8 to 39.8 |
| Cc1cc2c(c(F)n1)-c1ncc(F)cc1C(C)C(=O)N2CC(=O)Nc1ccc(C(F)F)cc1 (single isomer, unassigned) [#304, 2-[5,15-difluoro-8,13-dimethyl-9-oxo-3,10,14-triazatricyclo[9.4.0.0^2,7]pentadeca-1(15),2,4,6,11,13-hexaen-10-yl]-N-[4-(difluoromethyl)phenyl]acetamide] | 15.8 to 39.8 | 15.8 to 39.8 |
| CC1C(=O)N(CC(=O)Nc2ccc(C(F)F)cc2)c2cc(N3CC4(CCOC4)C3)nc(F)c2-c2cccnc21 (single isomer, unassigned) [#282, N-[4-(difluoromethyl)phenyl]-2-[3-fluoro-10-methyl-5-(6-oxa-2-azaspiro[3.4]octan-2-yl)-9-oxo-4,8,12-triazatricyclo[9.4.0.0^2,7]pentadeca-1(15),2,4,6,11,13-hexaen-8-yl]acetamide] | 15.8 to 39.8 | < 15.8 |
| COc1nc(C)cc2c1-c1cccnc1C(O)C(=O)N2CC(=O)Nc1ccc(C(F)(F)F)cc1 (centres unmarked) [#96, 2-(10-hydroxy-3-methoxy-5-methyl-9-oxo-4,8,12-triazatricyclo[9.4.0.0^2,7]pentadeca-1(11),2,4,6,12,14-hexaen-8-yl)-N-[4-(trifluoromethyl)phenyl]acetamide] | 15.8 to 39.8 | 15.8 to 39.8 |
| Cc1cc2c(c(Cl)n1)-c1ccccc1CC(=O)N2CC(=O)Nc1ccc(C(F)(F)F)cc1 [#49, 2-(1-chloro-3-methyl-6-oxo-7H-pyrido[4,3-d][3]benzazepin-5-yl)-N-[4-(trifluoromethyl)phenyl]acetamide] | 15.8 to 39.8 | < 15.8 |
| CC1C(=O)N(CC(=O)Nc2ccc(Cl)c(F)c2)c2cc(N3CC(F)(F)C3)ncc2-c2cccnc21 (single isomer, unassigned) [#293, N-(4-chloro-3-fluoro-phenyl)-2-[5-(3,3-difluoroazetidin-1-yl)-10-methyl-9-oxo-4,8,12-triazatricyclo[9.4.0.0^2,7]pentadeca-1(15),2,4,6,11,13-hexaen-8-yl]acetamide] | 39.8 to 100 | 15.8 to 39.8 |
| COc1nc(C)cc2c1-c1cccnc1CC(=O)N2CC(=O)Nc1ccc(C2CC2)cc1 [#80, N-(4-cyclopropylphen-yl)-2-(3-methoxy-5-methyl-9-oxo-4,8,12-triazatricyclo[9.4.0.0^2.7]pentadeca-1(11),2(7),3,5,12,14-hexaen-8-yl)-acetamide] | 15.8 to 39.8 | 15.8 to 39.8 |
| Cc1cc2c(c(F)n1)-c1cccnc1[C@@H](C)C(=O)N2CC(=O)Nc1csc(Cl)c1 [#243, N-(5-chloro-3-thienyl)-2-[(10R)-3-fluoro-5,10-dimethyl-9-oxo-4,8,12-triazatricyclo[9.4.0.0^2,7]pentadeca-1(11),2(7),3,5,12,14-hexaen-8-yl]acetamide] | 15.8 to 39.8 | 39.8 to 100 |
| CNc1cc2c(c(Cl)n1)-c1cccnc1CC(=O)N2CC(=O)Nc1ccc(C(F)(F)F)cc1 [#169, 2-[3-chloro-5-(methylamino)-9-oxo-4,8,12-triazatricyclo[9.4.0.0^2,7]pentadeca-1(11),2(7),3,5,12,14-hexaen-8-yl]-N-[4-(trifluoromethyl)phenyl]acetamide] | 100 to 501 | 15.8 to 39.8 |
| Cc1cc2c(c(Cl)n1)-c1cccnc1C(C)C(=O)N2CC(=O)Nc1ccc(Br)c(F)c1 (single isomer, unassigned) [#224, Enantiomer (10S) or (10R) of N-(4-bromo-3-fluoro-phenyl)-2-[3-chloro-5,10-dimethyl-9-oxo-4,8,12-triazatricyclo[9.4.0.0^2,7]pentadeca-1(15),2,4,6,11,13-hexaen-8-yl]acetamide] | 15.8 to 39.8 | < 15.8 |
| O=C(CN1C(=O)Cc2ccccc2-c2ncc(F)cc21)Nc1ccc(C(F)(F)F)cc1 [#16, 2-(3-fluoro-6-oxo-7H-pyrido[3,2-d] [3]benzazepin-5-yl)-N-[4-(trifluoro-methyl)phenyl] acetamide] | 100 to 501 | 100 to 501 |
| Cc1cc2c(n(C)c1=O)-c1cccnc1C(C)C(=O)N2CC(=O)Nc1ccc(C(F)(F)F)cc1 (centres unmarked) [#119, N-[4-(trifluoromethyl)phenyl]-2-(3,5,10-trimethyl-4,9-dioxo-3,8,12-triazatricyclo[9.4.0.0^2,7]pentadeca-1(11),2(7),5,12,14-pentaen-8-yl)acetamide] | 15.8 to 39.8 | 15.8 to 39.8 |
| Cc1cc2c(c(F)n1)-c1cccnc1C(F)C(=O)N2CC(=O)Nc1ccc(C(F)(F)F)cc1 (centres unmarked) [#101, 2-(3,10-difluoro-5-methyl-9-oxo-4,8,12-triazatricyclo[9.4.0.0^2,7]pentadeca-1(11),2(7),3,5,12,14-hexaen-8-yl)-N-[4-(trifluoromethyl)phenyl]acetamide] | 15.8 to 39.8 | < 15.8 |
| CC1C(=O)N(CC(=O)Nc2ccc(C(F)(F)F)nc2)c2cc(N3CC(F)(F)C3)ccc2-c2cccnc21 (single isomer, unassigned) [#333, 2-[9-(3,3-difluoroazetidin-1-yl)-5-methyl-6-oxo-5H-pyrido[2,3-d][1]benzazepin-7-yl]-N-[6-(trifluoromethyl)-3-pyridyl]acetamide] | 39.8 to 100 | 15.8 to 39.8 |
| Cc1cc2c(c(F)n1)-c1ccnn1[C@@H](C)C(=O)N2CC(=O)Nc1ccc(C(F)(F)F)cc1 (single isomer, unassigned) [#198, Enantiomer (7R) or (7S) of 2-[14-fluoro-7,12-dimethyl-8-oxo-5,6,9,13-tetrazatricyclo[8.4.0.0^2,6]tetradeca-1(10),2,4,11,13-pentaen-9-yl]-N-[4-(trifluoromethyl)phenyl]acetamide] | 39.8 to 100 | 39.8 to 100 |
